Measurements from patent US9079895B2, “Morpholino compounds, uses and methods” (University of Dundee, priority 2012, dated 2015).

Experiments:
Conditions in all cases: average of at least two experiments
5HT4 receptor = 5HT4 receptor (Homo sapiens (Human), UniProt Q13639); assay: Secondary radioligand binding assay, 5HT4; design: key: “—” indicates that a binding interaction was not detected
Method: 1. Secondary Radioligand Binding Assays The detailed experimental protocols for the radioligand and functional receptor assays are available on the NIMH PDSP website at http://pdsp.med.unc.edu/UNC-CH %20Protocol %20Book.pdf. Assay Buffer: Standard Binding Buffer (50 mM Tris-HCl, 10 mM MgCl2, 1 mM EDTA, pH 7.4) Membrane Fraction Source: Transiently or stably transfected cell lines (e.g., HEK293, COS, CHO, NIH3T3) Protocol adapted from Roth et al. (1986), J. Pharmacol. Exp. Ther., 238(2): 480-485; and Roth et al. (1994), J. Pharmacol. Exp. Ther., 268(3): 1403-1410. […] A similar stock of a reference compound (positive control) is also prepared. […] Radioligand is diluted to five times the assay concentration (see Table 18) in Standard Binding Buffer. Typically, the assay concentration of radioligand is a value between one half the KD and the KD of a particular radioligand at its target. 50 μl aliquots of radioligand are dispensed into the wells of a 96-well plate containing 100 μl of Standard Binding Buffer. Then, duplicate 50 μl aliquots of the test and reference compound dilutions are added. Finally, crude membrane fractions of cells expressing recombinant target (prepared from 10 cm plates by harvesting PBS-rinsed monolayers, resuspending and lysing in chilled, hypotonic 50 mM Tris-HCl, pH 7.4, centrifuging at 20,000×g, decanting the supernatant and storing at −80° C.; typically, one 10 cm plate provides sufficient material for 24 wells), are resuspended in 3 ml of chilled Standard Binding Buffer and homogenized by several passages through a 26 gauge needle, then 50 μl are dispensed into each well. […] Four rapid 500 μl washes are performed with chilled Standard Binding Buffer to reduce non-specific binding. Filters are placed in 6 ml scintillation tubes and allowed to dry overnight. The next day, 4 ml of EcoScint scintillation cocktail (National Diagnostics) are added to each tube. The tubes are capped, labeled, and counted by liquid scintillation counting. For higher throughput assays, bound radioactivity is harvested onto 0.3% polyethyleneimine-treated, 96-well filter mats using a 96-well Filtermate harvester. The filter mats are dried, then scintillant is melted onto the filters and the radioactivity retained on the filters is counted in a Microbeta scintillation counter. Raw data (dpm) representing total radioligand binding (i.e. specific+non-specific binding) are plotted as a function of the logarithm of the molar concentration of the competitor (i.e. test or reference compound).

5HT5 receptor = 5HT5 receptor (Homo sapiens (Human), UniProt P47898); assay: Secondary radioligand binding assay, 5HT5; design: key: “—” indicates that a binding interaction was not detected;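 note: competitive radioligand displacement on membranes from transfected cell lines, incubated at room temperature in the dark, filter-retained radioactivity counted by liquid scintillation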
5HT5 receptor, sequence (P47898 whole entry): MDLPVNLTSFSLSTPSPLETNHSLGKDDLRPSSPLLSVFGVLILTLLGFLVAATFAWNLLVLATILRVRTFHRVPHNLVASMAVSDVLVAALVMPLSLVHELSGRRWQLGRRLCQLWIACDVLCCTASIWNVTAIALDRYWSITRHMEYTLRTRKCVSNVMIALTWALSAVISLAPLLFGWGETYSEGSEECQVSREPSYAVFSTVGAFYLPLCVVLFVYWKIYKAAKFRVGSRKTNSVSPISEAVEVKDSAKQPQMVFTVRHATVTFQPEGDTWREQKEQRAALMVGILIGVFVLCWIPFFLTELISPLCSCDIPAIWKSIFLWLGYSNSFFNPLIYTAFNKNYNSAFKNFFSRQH

[1] = biological target: Alpha1A adrenergic receptor (Homo sapiens (Human), UniProt P35348); assay: Secondary radioligand binding assay, Alpha1A; design: key to Ki Alpha1A: “—” indicates that a binding interaction was not detected
Alpha1A adrenergic receptor, sequence (P35348 whole entry): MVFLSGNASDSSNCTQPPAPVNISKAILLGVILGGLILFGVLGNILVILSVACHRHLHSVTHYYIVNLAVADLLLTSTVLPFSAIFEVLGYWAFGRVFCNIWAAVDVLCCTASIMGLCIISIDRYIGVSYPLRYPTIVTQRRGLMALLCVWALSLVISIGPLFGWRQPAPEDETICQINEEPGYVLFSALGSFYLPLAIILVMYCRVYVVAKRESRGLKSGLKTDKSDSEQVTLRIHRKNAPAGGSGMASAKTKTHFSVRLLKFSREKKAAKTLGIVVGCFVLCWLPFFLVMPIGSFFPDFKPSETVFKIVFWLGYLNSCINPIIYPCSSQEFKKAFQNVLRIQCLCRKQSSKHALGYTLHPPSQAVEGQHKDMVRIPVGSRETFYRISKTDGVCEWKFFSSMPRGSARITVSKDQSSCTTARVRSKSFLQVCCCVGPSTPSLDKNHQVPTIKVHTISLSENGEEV
From the text: 1. Secondary Radioligand Binding Assays The detailed experimental protocols for the radioligand and functional receptor assays are available on the NIMH PDSP website at http://pdsp.med.unc.edu/UNC-CH %20Protocol %20Book.pdf. Raw data (dpm) representing total radioligand binding (i.e. specific+non-specific binding) are plotted as a function of the logarithm of the molar concentration of the competitor (i.e. test or reference compound). […] C. Adrenergic Receptors: α1A, α1B, α2A, α2B, α2C, β1, β2, β3 Assay Buffers: For α1 receptors, α1 Binding Buffer (20 mM Tris-HCl, 145 mM NaCl, pH 7.4); for α2 receptors, α2 Binding Buffer (50 mM Tris-HCl, 5 mM MgCl2, pH 7.7); for β receptors, β Binding Buffer (50 mM Tris-HCl, 3 mM MnCl2, pH 7.7) Membrane Fraction Source: Transiently or stably transfected cell lines (e.g. HEK293, COS, CHO, NIH3T3) Protocol adapted from Arango et al. […] (1990), Gen. Psychiatry, 47: 1038-1047. The method is carried out in the manner described for the serotonin receptor assay above, except where described below. Eleven dilutions (5× assay concentration) of the test and reference (see Table 20) compounds are prepared in the appropriate buffer by serial dilution, as previously described. Radioligand is diluted to five times the assay concentration (see Table 21) in the appropriate buffer. […] Four rapid 500-μl washes are performed with chilled distilled water (for α1 and β receptors) or 0.1% polyethyleneimine (for α2 receptors) to reduce non-specific binding. Filters are placed in 6 ml scintillation tubes and allowed to dry overnight and the samples are treated to obtain data as described above. [table]

dopamine D2 receptor = dopamine D2 receptor (Homo sapiens (Human), UniProt P14416); assay: Secondary radioligand binding assay, D2; design: key to Ki D2: “—” indicates that a binding interaction was not detected
dopamine D2 receptor, sequence (P14416 whole entry, species assumed): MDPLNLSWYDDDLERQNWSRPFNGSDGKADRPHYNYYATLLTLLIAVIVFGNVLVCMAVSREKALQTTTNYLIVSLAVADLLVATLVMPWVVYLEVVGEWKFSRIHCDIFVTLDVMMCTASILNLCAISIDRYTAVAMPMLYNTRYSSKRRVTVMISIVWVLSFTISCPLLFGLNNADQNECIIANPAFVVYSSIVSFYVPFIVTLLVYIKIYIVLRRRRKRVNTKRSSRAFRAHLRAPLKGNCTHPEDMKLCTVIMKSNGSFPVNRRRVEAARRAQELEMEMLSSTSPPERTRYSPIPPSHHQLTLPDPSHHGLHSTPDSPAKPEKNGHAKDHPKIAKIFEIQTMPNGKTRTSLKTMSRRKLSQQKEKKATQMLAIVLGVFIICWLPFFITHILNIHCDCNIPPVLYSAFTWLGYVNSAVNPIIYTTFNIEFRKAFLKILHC
Method: (§1) 1. Secondary Radioligand Binding Assays
(§2) The detailed experimental protocols for the radioligand and functional receptor assays are available on the NIMH PDSP website at http://pdsp.med.unc.edu/UNC-CH %20Protocol %20Book.pdf.
(§3) Radioligand is diluted to five times the assay concentration (see Table 18) in Standard Binding Buffer. Typically, the assay concentration of radioligand is a value between one half the KD and the KD of a particular radioligand at its target. 50 μl aliquots of radioligand are dispensed into the wells of a 96-well plate containing 100 μl of Standard Binding Buffer. Then, duplicate 50 μl aliquots of the test and reference compound dilutions are added.
(§4) The 250 μl reactions are incubated at room temperature and shielded from light (to prevent photolysis of light-sensitive ligands) for 1.5 hours, then harvested by rapid filtration onto Whatman GF/B glass fiber filters pre-soaked with 0.3% polyethyleneimine using a 96-well Brandel harverster. Four rapid 500 μl washes are performed with chilled Standard Binding Buffer to reduce non-specific binding. Filters are placed in 6 ml scintillation tubes and allowed to dry overnight. The next day, 4 ml of EcoScint scintillation cocktail (National Diagnostics) are added to each tube. The tubes are capped, labeled, and counted by liquid scintillation counting. […] The filter mats are dried, then scintillant is melted onto the filters and the radioactivity retained on the filters is counted in a Microbeta scintillation counter.
(§5) Raw data (dpm) representing total radioligand binding (i.e. specific+non-specific binding) are plotted as a function of the logarithm of the molar concentration of the competitor (i.e. test or reference compound).
(§6) B. Dopamine Receptors: D1, D2, D3, D4, D5 Assay Buffers: Dopamine Binding Buffer (50 mM NaCl, 50 mM HEPES-HCl, 5 mM MgCl2, 0.5 mM EDTA, pH 7.4) Membrane Fraction Source: Transiently or stably transfected cell lines (e.g. HEK293, COS, CHO, NIH3T3)
(§7) The method is carried out in the manner described for the serotonin receptor assay above. Eleven dilutions (5× assay concentration) of the test and reference (see Table 19) compounds are prepared in Dopamine Binding Buffer by serial dilution, as previously described. Radioligand is diluted to five times the assay concentration (see Table 20) in Dopamine Binding Buffer.

dopamine D3 receptor = dopamine D3 receptor (Homo sapiens (Human), UniProt P35462); assay: Secondary radioligand binding assay, D3; design: key to Ki D3: “—” indicates that a binding interaction was not detected
dopamine D3 receptor, sequence (P35462 whole entry, species assumed): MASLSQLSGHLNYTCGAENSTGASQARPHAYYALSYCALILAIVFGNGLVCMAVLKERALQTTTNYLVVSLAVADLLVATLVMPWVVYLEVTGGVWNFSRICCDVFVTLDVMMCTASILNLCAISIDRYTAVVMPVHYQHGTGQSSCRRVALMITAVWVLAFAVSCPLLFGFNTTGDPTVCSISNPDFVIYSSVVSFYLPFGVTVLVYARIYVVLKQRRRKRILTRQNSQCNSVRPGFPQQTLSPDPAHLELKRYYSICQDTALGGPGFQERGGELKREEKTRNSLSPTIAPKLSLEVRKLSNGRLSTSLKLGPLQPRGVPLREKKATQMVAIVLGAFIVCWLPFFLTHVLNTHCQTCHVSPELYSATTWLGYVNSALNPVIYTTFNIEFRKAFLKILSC
Method: as §1, §2, §3, §4, §5, §6, §7

5HT4 receptor, sequence (Q13639 whole entry): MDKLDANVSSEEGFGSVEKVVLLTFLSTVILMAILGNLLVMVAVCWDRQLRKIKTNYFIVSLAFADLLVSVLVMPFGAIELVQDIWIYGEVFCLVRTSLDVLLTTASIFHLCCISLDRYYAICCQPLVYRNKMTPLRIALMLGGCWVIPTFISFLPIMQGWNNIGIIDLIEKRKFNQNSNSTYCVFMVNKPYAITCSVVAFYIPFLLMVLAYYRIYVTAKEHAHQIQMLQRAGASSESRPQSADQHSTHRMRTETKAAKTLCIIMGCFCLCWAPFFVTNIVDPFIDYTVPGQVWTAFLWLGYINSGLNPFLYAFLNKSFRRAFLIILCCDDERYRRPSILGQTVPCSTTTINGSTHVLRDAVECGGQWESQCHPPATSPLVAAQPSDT

Structure (SMILES)	Ki 5HT4 (5HT4 receptor)	Ki 5HT5 (5HT5 receptor)	Ki Alpha1A [1]	Ki D2 (dopamine D2 receptor)	Ki D3 (dopamine D3 receptor)	Ki (dopamine D3 receptor)	Ki [1]	Ki (dopamine D2 receptor)
Cc1ncccc1OC[C@H]1CN(CC(=O)N2c3ccccc3C[C@H]2C)CCO1 [Compound 63]	—	—	—	—	—			
C[C@@H]1Cc2ccccc2N1C(=O)CN1CCO[C@@H](COc2ccncc2)C1 [Compound 67]	—	—	—	—	—			
CC1Cc2ccccc2N1C(=O)CN1CCO[C@@H](COc2cccc(Cl)c2)C1 (stereo partly drawn) [Compound 65]	—	—	—	—	—			
c1ccc(OC[C@H]2CN(CCN3CCc4ccccc43)CCO2)nc1 [Compound 15r, (R)-4-(2-(Indolin-1-yl)ethyl)-2-((pyridin-2-yloxy)methyl)morpholine]	—	—	—	—		> 10 µM		
Cc1ncccc1OC[C@@H]1CN(CCN2CCc3ccccc32)CCO1 [Compound 26s, (S)-4-(2-(Indolin-1-yl)ethyl)-2-(((2-methylpyridin-3-yl)oxy)methyl)morpholine]	—	—	—	—	—			
O=C(CN1CCO[C@@H](COc2ccccn2)C1)N1CCc2ccccc21 [Compound 14r, (R)-1-(Indolin-1-yl)-2-(2-((pyridin-2-yloxy)methyl)morpholino)ethanone]	—	—	—	—	—			
O=C(CN1CCO[C@H](COc2ccccc2)C1)N1CCc2ccccc21 [Compound 18s, (S)-1-(Indolin-1-yl)-2-(2-(phenoxymethyl)morpholino)ethanone]	—	—	—	—	—			
COc1cccc(OC[C@@H]2CN(CCN3CCc4ccccc43)CCO2)c1 [Compound 25s, (S)-4-(2-(Indolin-1-yl)ethyl)-2-((3-methoxyphenoxy)methyl)morpholine]	—	—				8.29 µM	8.35 µM	10 µM
Cc1ncccc1OC[C@H]1CN(CC(=O)N2c3ccccc3CC2C)CCO1 (stereo partly drawn) [Compound 62]	—	—	—	—	—			
Cc1ccnc(C)c1OC[C@H]1CN(CCN2CCc3ccccc32)CCO1 [Compound 29r, (R)-2-(((2,4-Dimethylpyridin-3-yl)oxy)methyl)-4-(2-(indolin-1-yl)ethyl)morpholine]	—	—	—	—	—			
O=C(CN1CCO[C@H](COc2cccc(Cl)c2)C1)N1CCc2ccccc21 [Compound 22s, (S)-2-(2-((3-Chlorophenoxy)methyl)morpholino)-1-(indolin-1-yl)ethanone]	—	—	—	—	—			
Cc1ccnc(OC[C@H]2CN(CC(=O)N3CCc4ccccc43)CCO2)c1 [Compound 16r]	—	—	—	—	—			
Cc1ccc(OC[C@H]2CN(CCN3CCc4ccccc43)CCO2)cn1 [Compound 28r, (R)-4-(2-(Indolin-1-yl)ethyl)-2-(((6-methylpyridin-3-yl)oxy)methyl)morpholine]	—	—	—	—	—			
Cc1ncccc1OC[C@H]1CN(CCN2CCc3ccccc32)CCO1 [Compound 26r, (R)-4-(2-(Indolin-1-yl)ethyl)-2-(((2-methylpyridin-3-yl)oxy)methyl)morpholine]	—	—	—	—		> 10 µM		
O=C(CN1CCO[C@H](COc2cccnc2)C1)N1CCc2ccccc21 [Compound 20s, (S)-1-(Indolin-1-yl)-2-(2-((pyridin-3-yloxy)methyl)morpholino)ethanone]	—	—	—	—	—			
